Tests used:
Sprague Dawley rats = experiment: Respiratory function in rats; format: in vivo, rat; settings: single oral doses up to 2000 mg/kg
Procedure: EC-18 was orally administered to Sprague Dawley rats (n=6 males/group) at single doses of 0, 500, 1000 and 2000 mg/kg. Tidal volume, respiration rate per minute and minute volume were measured with whole-body plethysmograph at 0 (pre-dose), 1, 2 and 4-hr post-dose.

CYP2D6 = CYP2D6 (Homo sapiens, UniProt P10635); experiment: CYP enzyme inhibition in human liver microsomes, CYP2D6
Source text: CYP1A2, CYP2C9, CYP2C19, CYP2D6, and CYP3A4 are the CYP subfamily, which plays a critical role in the metabolism of most drugs.

[1] = In vitro metabolite screening, rat liver microsomes; format: in vitro ADME; settings: N=2
Procedure: (§1) [^14C]EC-18 or the positive control (7-ethoxycoumarin; 7-EC) reacted with microsomes prepared from hepatocytes of rats, dogs, monkeys, and humans, with or without cofactors, for 60 and 120 min. Then, the residual EC-18 concentration over time was measured by LC-RID ([^14C]EC-18) or LC-MS/MS (7-EC) (FIG. 63 and FIG. 64).
(§2) The LC-RID chromatographic profiles of radioactive metabolites produced in the 2-hr incubation reaction mixtures of the same test systems A, B, and C used to assess the metabolic and non-metabolic elimination rates of EC-18 were compared to the LC-UV chromatographic profiles of the synthetic reference material. […] The relative radioactivity of EC-18 accounted for 42-67% of total radioactivity. The peaks designated as M2, M3, and M5 were also determined in all species, and their relative radioactivity accounted for 12-34% of total radioactivity. The peaks of M4 and M6 were determined in monkeys and humans. M1 was abundantly detected in all species, but it was assumed to be a peak of early elution. The LC-UV chromatograms of reaction mixtures in each test system (FIGS. 65A-65C) and the relative radioactivity of the screened metabolites are shown in Table 25.

EGFR = experiment: Western blot of EGFR activity, comparison to G-CSF; format: cell-based; settings: cells stimulated with neutrophil or G-CSF-activated neutrophils
Procedure: The effects of EC-18 in comparison to G-CSF to cells after γ-radiation were measured by western blot (FIG. 25). The experiment can i) show correlation between EGFR activity and the abnormal growth and metastasis induction of breast cancer cells in the TAN environment and ii) confirm inhibitory effect mechanism by PLAG treatment in this condition. In fact, it was confirmed that EGFR activity was increased in the groups stimulated with neutrophil or G-CSF-activated neutrophils, however, the activity of EGFR (Phosphorylation of EGFR) was decreased in the group treated with PLAG. FIG. 26 can show effects of PLAG in comparison to G-CSF.

[2] = tested on: HaCaT (human keratinocyte) cells; experiment: Radiation-induced DAMP (HMGB1) release from HaCaT cells; format: cell-based; settings: γ-irradiated HaCaT cells
Procedure: The radiation-induced DAMP removal was evaluated in HaCaT (human keratinocyte) cells exposed with γ-radiation from a ^60Co radiation source (0.833 Gy/minute). As one type of DAMPs, high-mobility group box 1 (HMGB1) was used as a biomarker to establish the mitigating effect of EC-18 against radiation. HMGB1 proportionally secreted as the radiation dosage (5 to 10 Gy) and exposure time (24 to 48 hrs) increased (FIG. 33A).

[3] = In vitro metabolic stability / metabolite screening, human liver microsomes; format: in vitro ADME; settings: for Mean Peak Area in LC-RID: Human, N=2
Procedure: as §1
Each test system was designed to examine phase 1 metabolic reaction (test system A), phase 2 metabolic reaction (test system B), and non-enzymatic degradation.
as §2, with “[…].” for “The peaks designated as M2, M3, and M5 were also determined in all species, and their relative radioactivity accounted for 12-34% of total radioactivity.”

[4] = Plasma concentrations of EC-18 in non-irradiated and irradiated mice; format: in vivo; settings: male, Balb/c, mouse, po
Procedure: A day after 6.11 Gy gamma-radiation, both irradiated and non-irradiated male Balb/c mice (n=5) were orally administered daily with 50, 100, 250 or 500 mg/kg of EC-18 up to 14 days and analyzed for PK parameters on days 7 and 14 post-radiation (Table 21).

[5] = A (NADPH added), [14C]EC-18 2 hrs
[6] = B (NADPH, PAPS, UDPGA added), 2 hrs
[7] = 50 mg/kg, day 7, 50 mg/kg oral daily, Irradiated 6.11 Gy
[8] = 50 mg/kg, day 7, 50 mg/kg oral daily, Non-irradiated
[9] = 50 mg/kg, day 14, 50 mg/kg oral daily, Irradiated 6.11 Gy
[10] = 50 mg/kg, day 14, 50 mg/kg oral daily, Non-irradiated
[11] = 100 mg/kg, day 7, 100 mg/kg oral daily, Irradiated 6.11 Gy
[12] = 100 mg/kg, day 7, 100 mg/kg oral daily, Non-irradiated
[13] = 100 mg/kg, day 14, 100 mg/kg oral daily, Irradiated 6.11 Gy
[14] = 100 mg/kg, day 14, 100 mg/kg oral daily, Non-irradiated
[15] = 250 mg/kg, day 7, 250 mg/kg oral daily, Irradiated 6.11 Gy
[16] = 250 mg/kg, day 7, 250 mg/kg oral daily, Non-irradiated
[17] = 250 mg/kg, day 14, 250 mg/kg oral daily, Irradiated 6.11 Gy
[18] = 250 mg/kg, day 14, 250 mg/kg oral daily, Non-irradiated
[19] = 500 mg/kg, day 7, 500 mg/kg oral daily, Irradiated 6.11 Gy
[20] = 500 mg/kg, day 7, 500 mg/kg oral daily, Non-irradiated
[21] = 500 mg/kg, day 14, 500 mg/kg oral daily, Irradiated 6.11 Gy
[22] = 500 mg/kg, day 14, 500 mg/kg oral daily, Non-irradiated

CYP2D6, sequence (P10635 whole entry): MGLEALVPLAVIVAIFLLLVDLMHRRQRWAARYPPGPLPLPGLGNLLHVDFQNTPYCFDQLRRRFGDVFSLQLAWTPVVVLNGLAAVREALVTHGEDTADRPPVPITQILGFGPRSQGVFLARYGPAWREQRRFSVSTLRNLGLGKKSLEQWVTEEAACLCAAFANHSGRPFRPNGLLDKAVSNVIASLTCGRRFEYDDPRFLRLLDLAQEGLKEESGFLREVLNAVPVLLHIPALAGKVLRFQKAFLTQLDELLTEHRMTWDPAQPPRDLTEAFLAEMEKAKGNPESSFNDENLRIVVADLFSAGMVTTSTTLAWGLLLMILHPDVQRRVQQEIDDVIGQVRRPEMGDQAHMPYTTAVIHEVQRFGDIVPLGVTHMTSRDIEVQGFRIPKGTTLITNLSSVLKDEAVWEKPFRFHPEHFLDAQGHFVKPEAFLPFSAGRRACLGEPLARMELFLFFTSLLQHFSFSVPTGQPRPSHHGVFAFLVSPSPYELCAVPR

CCCCC/C=C\C/C=C\CCCCCCCC(=O)OC(COC(C)=O)COC(=O)CCCCCCCCCCCCCCC (stereo not shown) [EC-18, 1-palmitoyl-2-linoleoyl-3-acetylglycerol]
respiratory function (Sprague Dawley rats): did affect the respiratory function
IC50 (CYP2D6): 67.9 µM
Mean Peak Area in LC-RID [1, 5]: 61.8%
Mean Peak Area in LC-RID [1, 6]: 51.9%
Mean Peak Area in LC-RID ([1]; C (no cofactor added), 2 hrs): 58.8%
activity of EGFR (Phosphorylation of EGFR) (EGFR): decreased
HMGB1 release [2]: less HMGB1 released in a dose-dependent manner
elimination rate ([3]; 1-hr reaction, test system A (Phase 1 metabolic reaction)): 21.2%
elimination rate ([3]; 1-hr reaction, test system B (Phase 2 metabolic reaction)): 25.5%
elimination rate ([3]; 1-hr reaction, test system C (non-enzymatic degradation)): 26.5%
elimination rate ([3]; 2-hr reaction, test system A): 32.8%
elimination rate ([3]; 2-hr reaction, test system B): 35.4%
elimination rate ([3]; 2-hr reaction, test system C): 32.6%
Mean Peak Area in LC-RID [3, 5]: 67.2%
Mean Peak Area in LC-RID [3, 6]: 64.6%
Mean Peak Area in LC-RID ([3]; C (no cofactor added), 2 hrs): 67.4%
AUC(0-t) [4, 7]: 39.5 ± 14.8 ng·h/mL
Cmax [4, 7]: 7.8 ± 3.4 ng/mL
Tmax [4, 7]: 0.4 ± 0.3 h
AUC(0-t) [4, 8]: 21.6 ± 11.7 ng·h/mL
Cmax [4, 8]: 2.7 ± 1.4 ng/mL
Tmax [4, 8]: 2.8 ± 2.4 h
AUC(0-t) [4, 9]: 8.6 ± 3.7 ng·h/mL
Cmax [4, 9]: 1.9 ± 0.6 ng/mL
Tmax [4, 9]: 3.1 ± 4.5 h
AUC(0-t) [4, 10]: 38.5 ± 10.3 ng·h/mL
Cmax [4, 10]: 4.1 ± 1.4 ng/mL
Tmax [4, 10]: 7.8 ± 8.4 h
AUC(0-t) [4, 11]: 41.3 ± 12.1 ng·h/mL
Cmax [4, 11]: 9.8 ± 2.9 ng/mL
Tmax [4, 11]: 0.7 ± 0.2 h
AUC(0-t) [4, 12]: 25.3 ± 7.1 ng·h/mL
Cmax [4, 12]: 9.7 ± 4.7 ng/mL
Tmax [4, 12]: 5.2 ± 8.6 h
AUC(0-t) [4, 13]: 80.8 ± 124 ng·h/mL
Cmax [4, 13]: 17.2 ± 23.3 ng/mL
Tmax [4, 13]: 1.8 ± 2.1 h
AUC(0-t) [4, 14]: 51.3 ± 22.6 ng·h/mL
Cmax [4, 14]: 12.8 ± 9.9 ng/mL
Tmax [4, 14]: 7.6 ± 8.5 h
AUC(0-t) [4, 15]: 73.9 ± 27.1 ng·h/mL
Cmax [4, 15]: 31.4 ± 14.9 ng/mL
Tmax [4, 15]: 0.6 ± 0.2 h
AUC(0-t) [4, 16]: 40.7 ± 23.4 ng·h/mL
Cmax [4, 16]: 16.4 ± 11.2 ng/mL
Tmax [4, 16]: 0.6 ± 0.2 h
AUC(0-t) [4, 17]: 16.2 ± 7.8 ng·h/mL
Cmax [4, 17]: 17.9 ± 17.5 ng/mL
Tmax [4, 17]: 0.6 ± 0.2 h
AUC(0-t) [4, 18]: 76.6 ± 9.8 ng·h/mL
Cmax [4, 18]: 19.4 ± 12.3 ng/mL
Tmax [4, 18]: 2.8 ± 4.2 h
AUC(0-t) [4, 19]: 123 ± 17.8 ng·h/mL
Cmax [4, 19]: 60.7 ± 14.6 ng/mL
Tmax [4, 19]: 0.7 ± 0.2 h
AUC(0-t) [4, 20]: 57.1 ± 39.7 ng·h/mL
Cmax [4, 20]: 14.2 ± 3 ng/mL
Tmax [4, 20]: 5.2 ± 8.6 h
AUC(0-t) [4, 21]: 67.3 ± 34.1 ng·h/mL
Cmax [4, 21]: 61 ± 42.1 ng/mL
Tmax [4, 21]: 0.6 ± 0.2 h
AUC(0-t) [4, 22]: 75.9 ± 16 ng·h/mL
Cmax [4, 22]: 32.1 ± 8 ng/mL
Tmax [4, 22]: 0.5 h

Reference: patent US12076307B2, “Compositions for prevention or treatment of acute radiation syndrome and other radiation exposure” (priority 2017, dated 2024)
